One test concerns the target T1, human WT ANO1 (Homo sapiens, UniProt Q5XXA6).
T1 construct: expressed in transfected cells
T1 sequence (Q5XXA6 1-986): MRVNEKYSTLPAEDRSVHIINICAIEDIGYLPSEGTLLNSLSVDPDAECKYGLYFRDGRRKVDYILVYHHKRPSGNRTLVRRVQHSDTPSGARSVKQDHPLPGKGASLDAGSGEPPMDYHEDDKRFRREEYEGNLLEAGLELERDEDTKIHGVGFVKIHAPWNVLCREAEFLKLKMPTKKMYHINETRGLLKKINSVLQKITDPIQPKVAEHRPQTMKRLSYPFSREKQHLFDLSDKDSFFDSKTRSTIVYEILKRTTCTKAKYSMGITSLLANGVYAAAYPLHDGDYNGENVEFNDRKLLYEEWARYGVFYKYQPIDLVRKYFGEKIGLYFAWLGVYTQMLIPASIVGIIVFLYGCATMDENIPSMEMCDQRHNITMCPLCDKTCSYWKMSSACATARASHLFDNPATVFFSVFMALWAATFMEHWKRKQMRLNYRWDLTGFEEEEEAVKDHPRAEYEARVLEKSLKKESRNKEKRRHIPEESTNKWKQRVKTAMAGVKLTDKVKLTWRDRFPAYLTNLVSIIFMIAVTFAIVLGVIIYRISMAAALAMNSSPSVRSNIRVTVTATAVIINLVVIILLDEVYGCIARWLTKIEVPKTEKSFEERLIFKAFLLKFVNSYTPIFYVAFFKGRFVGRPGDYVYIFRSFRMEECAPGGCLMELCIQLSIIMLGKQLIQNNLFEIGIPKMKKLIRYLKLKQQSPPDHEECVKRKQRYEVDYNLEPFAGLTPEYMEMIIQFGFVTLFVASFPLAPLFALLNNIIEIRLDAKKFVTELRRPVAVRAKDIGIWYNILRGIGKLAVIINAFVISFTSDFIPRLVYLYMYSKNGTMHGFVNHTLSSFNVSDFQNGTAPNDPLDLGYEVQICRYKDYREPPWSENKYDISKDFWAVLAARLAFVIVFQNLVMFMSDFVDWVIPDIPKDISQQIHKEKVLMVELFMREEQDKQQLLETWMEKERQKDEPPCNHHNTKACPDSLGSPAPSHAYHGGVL
The experiment in a line: ANO1 I− transport activity, YFP fluorescence in FRT cells, ATP-activated. It is filed as cell-based. The procedure:
Chinese hamster ovary (CHO)-K1 cells or LN-215 cells were cultured in DMEM medium containing 10% fetal bovine serum (FBS), 100 units/ml of penicillin and 100 μg/ml streptomycin. CHO-K1 cells or LN-215 cells were stably transfected with pcDNA3.1 encoding the halide sensor YFP-H148Q/I152L/F46L and human wild-type (WT)-SLC26A9. Fisher rat thyroid (FRT) cells stably transfected with YFP-H148Q/I152L/F46L and human wild type (WT)-CFTR or human wild type (WT)-ANO1 were cultured in DMEM/F-12 medium containing 10% fetal bovine serum (FBS), 100 units/ml of penicillin, and 100 μg/ml of streptomycin.
LN-215 cells expressing human WT SLC26A9 and YFP-F46L/H148Q/I152L, and FRT cells expressing human WT CFTR or ANO1 and YFP-F46L/H148Q/I152L were plated in 96-well microplates at a density of 2×10^4 cells per well, and cultured for 48 hours. […] After culturing at 37° C. for 10 minutes, the 96-well plate was located on the FLUOstar Omega Microplate Reader (BMG Labtech, Ortenberg, Germany) for a fluorescence assay. For assay of the activity of […], fluorescence was recorded continuously (400 ms per point) for 1 second (baseline), whereby each well was assayed individually for SLC26A9-mediated I-influx. Then, 50 μL of NaI-substituted HEPES buffered solution (replacing NaCl with NaI) was added using a liquid injector at 1 second, and YFP fluorescence was recorded for 6 seconds. […]

Test [1] concerns LPS-induced lung injury mouse model. The experiment in a line: LPS-induced lung injury mouse model with anion supply. The conditions noted are these: 5 μg/kg i.v. once 6 h after LPS. It is filed as in vivo, mice. The procedure:
Specifically, lipid polysaccharide (LPS, 200 μg/head) dissolved in 50 μL PBS was injected intranasally, and 6 hours after LPS inhalation, YPI-A4948 was intravenously administered once at 5 μg/kg, and at the same time, OH^−, HCO3^−, and SCN^− anions were administered intranasally, respectively. The mice were euthanized 24 hours after LPS inhalation to remove the lungs. Then, lung tissue H&E staining was performed to observe the degree of lung injury, and bronchoalveolar lavage fluid (BALF) was extracted in the same manner as in Example 12, and cytopathology staining using BALF total cell count, BALF protein concentration level, and Diff-Quik Stain was performed. Data provided are mean±SEM (n=3-5 per group), scale bar is 50 μm for H&E staining and cytopathology staining imaged at 400×.

SMILES strings stand for the structures.

Usually inhibition stands for the drop in the measured response relative to a control, in per cent. A high value points to a strong effect. In turn, `Cc1ccc(C)c(N2CCN(C(=O)Cc3c(C(=O)O)[nH]c4ccc(Cl)cc34)CC2)c1` [YPI-H05, 5-chloro-3-(2-(4-(2,5-dimethylphenyl)piperazin-1-yl-)-2-oxoethyl)-1H-indole-2-carboxylic acid] registered an inhibition at 30 µM on human WT ANO1 (FIG. 3) of around 80%.
Regarding `Cc1ccc2[nH]c(C(=O)O)c(CC(=O)N3CCN(c4c(C)cccc4Cl)CC3)c2c1` [YPI-A4948, 3-(2-(4-(2-Chloro-6-methylphenyl)piperazin-1-yl)-2-oxoethyl)-5-methyl-1H-indole-2-carboxylic acid], the “Effect on ANO1 activity” value on human WT ANO1 (30 μM) is reported as “weakly inhibited”. For the same compound, in test [1], the Lung injury result was “reduced” and the “Lung injury improvement effect when OH−, HCO3−, SCN− anions are supplied intranasally” value is given as “weakened only by SCN^−”.

For the origin of these results see patent US20240287042A1, “NOVEL COMPOUND HAVING INHIBITORY ACTIVITY AGAINST PENDRIN, AND PHARMACEUTICAL USES THEREOF” (UIF (University Industry Foundation), Yonsei University, priority 2021, published 2024).
